Patent US8372808B2, “Suppression of glial fibrillary acidic protein” (Wisconsin Alumni Research Foundation, priority 2008, dated 2013)
Where “and” joins values, the source holds several entries; their conditions need not be identical. Identical values can stand only once.

Key:
172.9 cells = test: cell viability (CellTiter-Glo) / MTDcc in 172.9 cells
GFAP protein = GFAP protein in brain of Tg172.9 mice (sandwich ELISA); format: in vivo, mouse
Procedure: Another group of mice were injected with the same volume of vehicle alone (n=15). Brains were bisected sagittally with one half analyzed for GFAP promoter activity using the Dual-Glo assay, and the other half analyzed for GFAP protein using the sandwich ELISA. FIG. 7A is a bar graph showing hGFAP promoter activity of clomipramine-treated mice. The mice show a 26% reduction in hGFAP promoter activity compared to vehicle-treated controls. FIG. 7B is a bar graph showing the GFAP protein levels of clomipramine-treated mice. The mice show a 57% reduction in total GFAP content compared to vehicle-treated controls. Graphs present the mean±SD (* p<0.05, ***p<0.001, unpaired t-test).
At various times after injection, from 0-48 hours, brains were harvested for measurement of GFAP promoter activity using the Dual-Glo luciferase assay, and GFAP protein using a sandwich ELISA.
Injections were given in the afternoon, between 3-5 PM. Controls were transgenic littermates injected with vehicle alone. At the end of the three week course of injections (and one day after the last injection), brains were harvested for analysis of GFAP promoter activity and protein levels as described above.
To achieve significant reductions of GFAP protein in vivo may require chronic treatments, given the slow turnover of this protein. […] Controls were injected with vehicle alone. […]

GAPDH promoter = test: housekeeping GAPDH promoter activity in brain of Tg172.9 mice; format: in vivo, mouse; settings: 40 mg/kg IP every other day for 3 weeks
Procedure: The dual transgenic reporter mice (FVB-Tg(GFAP-luc,GAPDH-luc)172.9Mes/J mice (JR#9638)) were developed as follows. The two transgenes were co-injected at equimolar ratios into the pronuclei of fertilized eggs on either FVB/N or FB6F1 hybrid backgrounds, using a combined concentration of 3 ng/μL. Genotyping was performed by PCR on genomic DNA isolated from tail biopsies at weaning, using the following conditions: one cycle at 95° C. 3 min, 32 cycles of 95° C. 40 s, 58° C. 30 s, 72° C. 1 min and a final extension step at 72° C. for 5 min. The primers used for detection of the GFAP-fLuc transgene were 5′-[…]-3′ (forward) and 5′-[…]-3′ (reverse), and for detection of the GAPDH-RLuc transgene were 5″-[…]-3′ (forward) and 5′-[…]-3′ (reverse). The predicted sizes for the PCR fragments are 403 bp for the GFAP-fLuc transgene, and 551 by for the GAPDH-RLuc transgene. Nine founder mice were identified that contained both transgenes, and were mated to FVB/N mice to establish lines. (The Tg172-9 line of mice has been donated to the Jackson Laboratory ([…]) for unrestricted distribution (stock #JR9638). The GAPDH (glyceraldehyde 3-phosphate dehydrogenase) promoter was used to monitor transcription of a housekeeping gene for signal normalization.

[1] = pilot studies with daily injections of clomipramine (tolerability); format: in vivo, mouse; settings: daily injections of 40 mg/kg; after 2 weeks

CN(C)CCCN1c2ccccc2CCc2ccc(Cl)cc21 [clomipramine]
cell viability (172.9 cells; quaternary screen, 10 days of exposure): acceptable cell viability
MTDcc (172.9 cells; tertiary screen, 48 hr exposure, 0.1-20 μM, highest concentration that retained at least 70% cell viability): 12.5 µM
reduction in GFAP protein compared to vehicle-treated controls (GFAP protein; 40 mg/kg IP every other day for 3 weeks): 57% and ~50%
changes in GFAP protein levels (GFAP protein; acute treatment, single IP injection, 0-48 hours): no changes
change in activity from the housekeeping GAPDH promoter (GAPDH promoter): no significant change
side effect of daily injections [1]: weight loss
